Assays:
Assay in all cases: relative viability (nuclei count vs DMSO), 5 days (fraction); higher = more cells survive
201T = system: 201T
Summary of the method: (§1)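 Values are medians from duplicate plates. Each reflects relative viability, defined as the nuclei count of treated wells over that of vehicle wells. Lung cancer cell lines in 1536-well plates were pin-tool dosed one day after seeding with one drug alone or with a fixed anchor-drug dose plus five library-drug doses (not always all listed) in √10 steps, then fixed, stained and imaged at 4× after 5 days.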

A-427 = system: A-427
Summary of the method: as §1

COR-L 105 = system: COR-L 105
Summary of the method: as §1

COR-L23 = system: COR-L23
Summary of the method: as §1

EKVX = system: EKVX
Summary of the method: as §1

HARA = system: HARA
Summary of the method: as §1

HCC-15 = system: HCC-15
Summary of the method: as §1

HCC-44 = system: HCC-44
Summary of the method: as §1

HCC-827 = system: HCC-827
Summary of the method: as §1

LCLC-103H = system: LCLC-103H
Summary of the method: as §1

LK-2 = system: LK-2
Summary of the method: as §1

NCI-H1437 = system: NCI-H1437
Summary of the method: as §1

NCI-H1666 = system: NCI-H1666
Summary of the method: as §1

NCI-H1792 = system: NCI-H1792
Summary of the method: as §1

NCI-H1975 = system: NCI-H1975
Summary of the method: as §1

NCI-H23 = system: NCI-H23
Summary of the method: as §1

NCI-H441 = system: NCI-H441
Summary of the method: as §1

NCI-H520 = system: NCI-H520
Summary of the method: as §1

NCI-H522 = system: NCI-H522
Summary of the method: as §1

NCI-H596 = system: NCI-H596
Summary of the method: as §1

NCI-H650 = system: NCI-H650
Summary of the method: as §1

NCI-H838 = system: NCI-H838
Summary of the method: as §1

SK-MES-1 = system: SK-MES-1
Summary of the method: as §1

SW 900 = system: SW 900
Summary of the method: as §1

CC(C)Oc1cc(Nc2nc(N[C@@H](C)c3ccc(F)cn3)ncc2Cl)n[nH]1 [AZ23] + COc1cccc2cc(-c3nc([C@H]4CC[C@H](C(=O)O)CC4)n4ncnc(N)c34)[nH]c12 [OSI-027] (partner 0.5 µM)
relative viability (201T; first compound 0.01 µM): 0.504 | relative viability (201T; first compound 0.03162 µM): 0.827 | relative viability (201T; first compound 0.3162 µM): 0.728 | relative viability (A-427; first compound 0.01 µM): 0.37 | relative viability (A-427; first compound 0.03162 µM): 0.448 | relative viability (A-427; first compound 0.3162 µM): 0.34 | relative viability (COR-L 105; first compound 0.01 µM): 0.657 | relative viability (COR-L 105; first compound 0.03162 µM): 0.849 | relative viability (COR-L 105; first compound 0.3162 µM): 0.809 | relative viability (COR-L23; first compound 0.01 µM): 0.758 | relative viability (COR-L23; first compound 0.03162 µM): 0.868 | relative viability (COR-L23; first compound 0.3162 µM): 0.822 | relative viability (EKVX; first compound 0.01 µM): 0.801 | relative viability (EKVX; first compound 0.03162 µM): 0.636 | relative viability (EKVX; first compound 0.3162 µM): 0.66 | relative viability (HARA; first compound 0.03162 µM): 0.686 | relative viability (HARA; first compound 0.3162 µM): 0.415 | relative viability (HCC-15; first compound 0.01 µM): 0.687 | relative viability (HCC-15; first compound 0.03162 µM): 0.665 | relative viability (HCC-15; first compound 0.3162 µM): 0.684 | relative viability (HCC-44; first compound 0.01 µM): 0.538 | relative viability (HCC-44; first compound 0.03162 µM): 0.661 | relative viability (HCC-44; first compound 0.3162 µM): 0.375 | relative viability (HCC-827; first compound 0.01 µM): 0.78 | relative viability (HCC-827; first compound 0.03162 µM): 0.793 | relative viability (HCC-827; first compound 0.3162 µM): 0.882 | relative viability (LCLC-103H; first compound 0.01 µM): 0.401 | relative viability (LCLC-103H; first compound 0.03162 µM): 0.505 | relative viability (LCLC-103H; first compound 0.3162 µM): 0.535 | relative viability (LK-2; first compound 0.01 µM): 0.176 | relative viability (LK-2; first compound 0.03162 µM): 0.198 | relative viability (LK-2; first compound 0.3162 µM): 0.183 | relative viability (NCI-H1437; first compound 0.01 µM): 0.878 | relative viability (NCI-H1437; first compound 0.03162 µM): 1.01 | relative viability (NCI-H1437; first compound 0.3162 µM): 1.05 | relative viability (NCI-H1666; first compound 0.01 µM): 0.847 | relative viability (NCI-H1666; first compound 0.03162 µM): 0.849 | relative viability (NCI-H1666; first compound 0.3162 µM): 0.823 | relative viability (NCI-H1792; first compound 0.01 µM): 0.752 | relative viability (NCI-H1792; first compound 0.03162 µM): 0.782 | relative viability (NCI-H1792; first compound 0.3162 µM): 0.841 | relative viability (NCI-H1975; first compound 0.01 µM): 0.874 | relative viability (NCI-H1975; first compound 0.03162 µM): 0.812 | relative viability (NCI-H1975; first compound 0.3162 µM): 0.727 | relative viability (NCI-H23; first compound 0.03162 µM): 0.58 | relative viability (NCI-H23; first compound 0.3162 µM): 0.599 | relative viability (NCI-H441; first compound 0.01 µM): 0.707 | relative viability (NCI-H441; first compound 0.03162 µM): 0.729 | relative viability (NCI-H441; first compound 0.3162 µM): 0.566 | relative viability (NCI-H520; first compound 0.01 µM): 0.276 | relative viability (NCI-H520; first compound 0.03162 µM): 0.281 | relative viability (NCI-H520; first compound 0.3162 µM): 0.278 | relative viability (NCI-H522; first compound 0.01 µM): 0.639 | relative viability (NCI-H522; first compound 0.03162 µM): 0.711 | relative viability (NCI-H522; first compound 0.3162 µM): 0.563 | relative viability (NCI-H596; first compound 0.01 µM): 0.711 | relative viability (NCI-H596; first compound 0.03162 µM): 0.834 | relative viability (NCI-H596; first compound 0.3162 µM): 0.671 | relative viability (NCI-H650; first compound 0.01 µM): 0.463 | relative viability (NCI-H650; first compound 0.03162 µM): 0.564 | relative viability (NCI-H650; first compound 0.3162 µM): 0.579 | relative viability (NCI-H838; first compound 0.01 µM): 0.437 | relative viability (NCI-H838; first compound 0.03162 µM): 0.402 | relative viability (NCI-H838; first compound 0.3162 µM): 0.424 | relative viability (SK-MES-1; first compound 0.03162 µM): 0.711 | relative viability (SK-MES-1; first compound 0.3162 µM): 0.745 | relative viability (SW 900; first compound 0.01 µM): 0.512 | relative viability (SW 900; first compound 0.03162 µM): 0.663 | relative viability (SW 900; first compound 0.3162 µM): 0.579

— the supplement of paper PMC10307832
